Like-named read-outs stand apart in the source and are kept apart here.
Assays:
[1] = system: Immature castrated male Sprague Dawley rats; ventral prostate and seminal vesicle; test: Ventral Prostate and Seminal Vesicle Weight In Vivo Assay (antagonist activity, percent inhibition of testosterone-enhanced tissue weights); design: species or system rat; key to Inhibition of prostate (non-weight prostate weight, mg): level 1 agonist active if it produced greater than or equal to 30% stimulation of levator ani or ventral prostate at 30 mg/kg; level 2 agonist active if it produced greater than or equal to 5% but less than 30% stimulation of levator ani or ventral prostate at 30 mg/kg; listed herein as “inactive” as they did not meet the specified criteria defined above; conditions: compound oral once daily for five days with testosterone propionate 2 mg/kg s.c., classes defined at 30 mg/kg; for inhibition in vivo at 30 mg/kg: Rattus norvegicus, 120 h
Experimental: Ventral Prostate and Seminal Vesicle Weight In Vivo Assay
Immature (approximately 50 g) castrated male Sprague Dawley rats (Charles River) were treated once daily for five days with test compound ([…], in 30% cyclodextrin or 0.5% methylcellulose vehicle) and with testosterone propionate (given subcutaneously by injection at the nape of the neck at 2 mg/kg, in a volume of 0.1 mL in sesame oil). On the sixth day, the rats were euthanized by asphyxiation in carbon dioxide. Ventral prosatates and seminal vesicles were removed and their wet weights determined. Test compound activity was determined as the percent inhibition of testosterone-enhanced tissue weights, with a vehicle-treated control group set to zero percent and a testosterone alone-treated control group set to 100%.
Representative compounds of the present invention were tested according to the procedure described, with results as listed in Table 4 below.

[2] = system: Immature castrated male Sprague Dawley rats; ventral prostate and levator ani; test: Ventral Prostate and Levator Ani Weight In Vivo Assay (agonist activity, percent stimulation of tissue weight); design: species or system rat; key to % Prostate Stimulation: level 1 agonist active if it produced greater than or equal to 30% stimulation of levator ani or ventral prostate at 30 mg/kg; level 2 agonist active if it produced greater than or equal to 5% but less than 30% stimulation of levator ani or ventral prostate at 30 mg/kg; listed herein as “inactive” as they did not meet the specified criteria defined above; conditions: once daily for five days, oral, vehicle = 0%, testosterone alone = 100%, classes defined at 30 mg/kg; for change in vivo at 30 mg/kg: Rattus norvegicus, 120 h
Experimental: Ventral Prostate and Levator Ani Weight In Vivo Assay
Immature (approximately 50 g) castrated male Sprague Dawley rats (Charles River) were treated once daily for five days with test compound (usually given orally at 40 mg/kg in a volume of 0.3 mL, in 30% cyclodextrin or 0.5% methylcellulose vehicle) and with testosterone propionate (given subcutaneously by injection at the nape of the neck at 2 mg/kg, in a volume of 0.1 mL in sesame oil). On the sixth day, the rats were euthanized by asphyxiation in carbon dioxide. Ventral prostates and levator ani muscles were removed and their wet weights determined.
Test compound activity was determined as the percent stimulation of tissue weight, with the vehicle-treated control group set to zero percent and the testosterone alone-treated control group set to 100%. A compound was designated as level 1 agonist active if it produced greater than or equal to 30% stimulation of levator ani or ventral prostate at 30 mg/kg. A compound was designated as level 2 agonist active if it produced greater than or equal to 5% but less than 30% stimulation of levator ani or ventral prostate at 30 mg/kg.
Representative compounds of the present invention were tested according to the procedure described, with results as listed in Table 3 below.

[3] = seminal vesicle wet weight, read-out: Inhibition of seminal vesicle (non-weight seminal vesicle weight, mg)
[4] = ventral prostate wet weight, read-out: Inhibition of prostate (non-weight prostate weight, mg)
[5] = levator ani wet weight, read-out: % levator ani Stimulation
[6] = ventral prostate wet weight, read-out: % Prostate Stimulation

SMILES	inhibition in vivo at 30 mg/kg [1, 3] [%]	inhibition in vivo at 30 mg/kg [1, 4] [%]	change in vivo at 30 mg/kg [2, 5] [%]	change in vivo at 30 mg/kg [2, 6] [%]	% levator ani Stimulation ([2]; levator ani wet weight)	% Prostate Stimulation ([2]; ventral prostate wet weight)	Inhibition of seminal vesicle (non-weight seminal vesicle weight, mg) ([1]; seminal vesicle wet weight)	Inhibition of prostate (non-weight prostate weight, mg) ([1]; ventral prostate wet weight)
CC12CC(C(F)(F)F)=NN1C(=O)N(c1ccc(C#N)c(C(F)(F)F)c1)C2=O (centres unmarked) [Compound 1, 4-(3a-Methyl-4,6-dioxo-2-trifluoromethyl-3a,4-dihydro-3H-imidazo[1,5-b]pyrazol-5-yl)-2-trifluoromethyl-benzonitrile]	5 to 30	5 to 30	≥ 30	5 to 30				
C[C@]12CC(C(F)(F)F)=NN1C(=O)N(c1ccc(C#N)c(C(F)(F)F)c1)C2=O [Compound 2, (R)-4-(3a-Methyl-4,6-dioxo-2-trifluoromethyl-3a,4-dihydro-3H-imidazo[1,5-b]pyrazol-5-yl)-2-trifluoromethyl-benzonitrile]	5 to 30	5 to 30	≥ 30	5 to 30				
C[C@@]12CC(C(F)(F)F)=NN1C(=O)N(c1ccc(C#N)c(C(F)(F)F)c1)C2=O [Compound 3, (S)-4-(3a-Methyl-4,6-dioxo-2-trifluoromethyl-3a,4-dihydro-3H-imidazo[1,5-b]pyrazol-5-yl)-2-trifluoromethyl-benzonitrile]	5 to 30	5 to 30	≥ 30	≥ 30				
CC12CC=NN1C(=O)N(c1ccc(C#N)c(C(F)(F)F)c1)C2=O (centres unmarked) [Compound 4, 4-(3a-Methyl-4,6-dioxo-3a,4-dihydro-3H-imidazo[1,5-b]pyrazol-5-yl)-2-trifluoromethyl-benzonitrile]	5 to 30	5 to 30			Inactive	inactive		
CCOC(=O)C1=NN2C(=O)N(c3ccc(C#N)c(C(F)(F)F)c3)C(=O)C2(C)C1 (centres unmarked) [Compound 5, 5-(4-Cyano-3-trifluoromethyl-phenyl)-3a-methyl-4,6-dioxo-3a,4,5,6-tetrahydro-3H-imidazo[1,5-b]pyrazole-2-carboxylic acid ethyl ester]	5 to 30	5 to 30			Inactive	inactive		
CCOC(=O)C1=NN2C(=O)N(c3ccc([N+](=O)[O-])c(C(F)(F)F)c3)C(=O)C2(C)C1 (centres unmarked) [Compound 6, 3a-Methyl-5-(4-nitro-3-trifluoromethyl-phenyl)-4,6-dioxo-3a,4,5,6-tetrahydro-3H-imidazo[1,5-b]pyrazole-2-carboxylic acid ethyl ester]	5 to 30	5 to 30			Inactive	inactive		
CC(=O)Nc1ccc(C2=NN3C(=O)N(c4ccc(C#N)c(C(F)(F)F)c4)C(=O)C3(C)C2)cc1 (centres unmarked) [Compound 7, N-{4-[5-(4-Cyano-3-trifluoromethyl-phenyl)-3a-methyl-4,6-dioxo-3a,4,5,6-tetrahydro-3H-imidazo[1,5-b]pyrazol-2-yl]-phenyl}-acetamide]		5 to 30	5 to 30	5 to 30			Inactive	
CCOC(=O)C1=NN2C(=O)C(=O)N(c3ccc(C#N)c(C(F)(F)F)c3)C(=O)C2(C)C1 (centres unmarked) [Compound 8, 5-(4-Cyano-3-trifluoromethyl-phenyl)-3a-methyl-4,6,7-trioxo-3,3a,4,5,6,7-hexahydro-pyrazolo[1,5-a]pyrazine-2-carboxylic acid ethyl ester]	5 to 30		5 to 30			inactive		inactive
C[C@@]12CC(C(F)(F)F)=NN1[S+]([O-])N(c1ccc(C#N)c(C(F)(F)F)c1)C2=O (stereo partly drawn) [Compound 10, (S)-4-(3a-Methyl-1,3-dioxo-5-trifluoromethyl-3a,4-dihydro-3H-1I4-thia-2,6,6a-triaza-pentalen-2-yl)-2-trifluoromethyl-benzonitrile]	5 to 30	≥ 30	≥ 30	≥ 30				
C[C@@]12CC(C(F)(F)F)=NN1S(=O)(=O)N(c1ccc(C#N)c(C(F)(F)F)c1)C2=O [Compound 11, 4-(3a-Methyl-1,1,3-trioxo-5-trifluoromethyl-3a,4-dihydro-3H-1I6-thia-2,6,6a-triaza-pentalen-2-yl)-2-trifluoromethyl-benzonitrile]	5 to 30	5 to 30	≥ 30	≥ 30				
CC12COC(=O)N1C(=O)N(c1ccc(Cl)c(C(F)(F)F)c1)C2=O (centres unmarked) [Compound 12, 6-(4-Chloro-3-trifluoromethyl-phenyl)-7a-methyl-dihydro-imidazo[1,5-c]oxazole-3,5,7-trione]	5 to 30	5 to 30			Inactive	inactive		
CC12CNC(=O)N1C(=O)N(c1ccc(Cl)c(C(F)(F)F)c1)C2=O (centres unmarked) [Compound 13, 2-(4-Chloro-3-trifluoromethyl-phenyl)-7a-methyl-dihydro-imidazo[1,5-c]imidazole-1,3,5-trione]	≥ 30	≥ 30			Inactive	inactive		
CC12CNC(=O)N1C(=O)N(c1ccc(C#N)c(C(F)(F)F)c1)C2=O (centres unmarked) [Compound 15, 4-(7a-Methyl-1,3,5-trioxo-tetrahydro-imidazo[1,5-c]imidazol-2-yl)-2-trifluoromethyl-benzonitrile]	≥ 30	≥ 30			Inactive	inactive		
CN1CC2(C)C(=O)N(c3ccc(Cl)c(C(F)(F)F)c3)C(=O)N2C1=O (centres unmarked) [Compound 16, 2-(4-Chloro-3-trifluoromethyl-phenyl)-6,7a-dimethyl-dihydro-imidazo[1,5-c]imidazole-1,3,5-trione]	≥ 30	≥ 30			Inactive	inactive		

From patent US8097730B2, “Bicyclic heterocycles useful as selective androgen receptor modulators” (Janssen Pharmaceutica N.V., priority 2006, dated 2012)
